Patent publication US20090312411A1, “PREVENTING OR REDUCING RISK OF MISCARRIAGES” (New York Society for the Raptured and Crippled Maintaining …, priority 2008, published 2009)

How the values were obtained:
monocytes = assay: sFlt-1 release by monocytes in vitro (ELISA); type: cell-based, mouse; conditions: 10 nM C5a for 4 h; pravastatin 5 μg/ml for 3 hours prior to C5a
Method: Protocol. Mice with a selective deletion of the TF gene in myeloid cells (TF^floxed/floxed/LysM-Cre mice) (Redecha et al., supra), were used for isolation of monocytes to study sVEGFR-1 production in vitro. Blockade of TF was carried out as in Example 17 by i.p. injections of anti-mTF antibody 1H1.
Protocol. Splenocytes were prepared from non pregnant CBA/J female mice and incubated for 4 h in culture medium supplemented with 10% inactivated fetal bovine serum (FBS). Non adherent cells were removed and adherent cells (>95% peroxidase-positive) were incubated in culture medium with the addition of 10 nM mouse recombinant C5a. A group of adherent monocytes was treated for 3 hours with pravastatin (5 μg/ml) prior to incubation with C5a. After 4 h of incubation with C5a, culture supernatants were collected and analyzed for sVEGFR-1 by ELISA (R&D Systems).

sFlt-1 = assay: Plasma sFlt-1 (sVEGFR-1) ELISA in CBA/J×DBA/2 mice; type: in vivo, mouse; conditions: day 7 of pregnancy
Method: Protocol. To determine the effect of pravastatin treatment on pregnancy loss and oxidative stress, group of mice was treated with pravastatin (Sigma Chemicals, St Louis, Mo.; 5 μg/mouse, IP) from day 4 to 15 of pregnancy. Pravastatin was directly dissolved in sterile PBS. Blood samples were obtained from pregnant females from days 1 to 15 of pregnancy from the submandibular vein. Nitric oxide (NO) was measured by a […] method (R&D Systems). Plasma sVEGFR-1 was measured with a commercial ELISA kit (R&D Systems).

TF = TF expression on peripheral blood monocytes, 2-color FACS; type: in vivo, mouse; conditions: CBA/J×DBA/2 mice, FIG. 17G
Method: Determining TF Expression. TF expression on peripheral blood monocytes was analyzed by 2-color fluorescence-activated cell sorting (FACS). Heparinized whole blood obtained at day 7 from DBA/2 or BALB/c mated CBA/J females was stained with fluorescein isothiocyanate (FITC)-labeled anti-mouse F4/80 for FL1 (BD Biosciences Pharmingen) to identify monocytes and biotinylated rat anti-mTF antibody 1H1 and streptavidin-PerCP (BD Biosciences Pharmingen) as the FL3 fluorochrome. Red cells were lysed with ACK buffer (Redecha et al., supra). Preparations were then incubated with SA-PerCP and analyzed by FACS using a FACscan (BD Biosciences Pharmingen).

CBA/J×DBA/2 mice [1] = assay: Fetal resorption frequency in CBA/J×DBA/2 matings (non aPL-dependent recurrent miscarriage); type: in vivo, mouse; conditions: day 15 of pregnancy, FIG. 7, 15A, 17A
Excerpt: Protocol. DBA/2-mated female CBA/J mice (CBA/J×DBA/2) are a well-studied model of immunologically mediated pregnancy loss that shares features with human recurrent miscarriage (Clark, D A et al., 1998, J. Immunol. 160:545-549; Blois, M. et al., 2005, J. Immunol. 174:1820-1829). Embryonic lethality in DBA/2-mated female CBA/J mice is believed to represent rejection of the semiallogeneic placenta by maternal-derived activated effectors. 8-10-wk-old virgin female CBA/J mice were mated with 8-14-wk-old CBA/J, BALB/c, or DBA/2 males. Females were inspected daily for vaginal plugs, and presence of a vaginal plug was designated as day 0 of pregnancy. A group of DBA/2- and BALB/c mated CBA/J females were treated with pravastatin (0.2 μg/g bw=5 μg/mouse, i.p) on days 5, 6 and 7 of pregnancy. […] Pregnant females were euthanized on day 15 and fetal resorption frequency was calculated.
Animals. Inbred CBA/J (H-2k), DBA/2 (H-2d) and BALB/c (H-2d) mice from The Jackson Laboratory were used. 8-10-wk-old virgin female CBA/J mice were mated with 8-14-wk-old BALB/c, or DBA/2 males. […] The frequency of fetal resorption was calculated on day 15 as previously described (Girardi et al., 2006, J Exp Med 203:2165-2175). Fetal weights were also determined. […]
(§1) Protocol. […] Nitric oxide (NO) was measured by a calorimetric method (R&D Systems). Plasma sVEGFR-1 was measured with a commercial ELISA kit (R&D Systems).

CBA/J×DBA/2 mice [2] = assay: Fetal weight / IUGR in CBA/J×DBA/2 matings; type: in vivo, mouse; conditions: day 15 of pregnancy, FIG. 10, 15B, 17B
Method: Protocol. 8-10-wk-old virgin female CBA/J mice were mated with 8-14-wk-old CBA/J, BALB/c, or DBA/2 males. Females were inspected daily for vaginal plugs, and presence of a vaginal plug was designated as day 0 of pregnancy. Pregnant mice were treated with pravastatin (0.2 μg/g bw=5 μg/mouse, i.p 18 hours prior to aPL or NHIgG injections on days 8 and 12). Pravastatin (Sigma Chemical, St Louis, Mo.) was dissolved in EtOH at a concentration of 10 mg/mL and diluted with NaCl 0.9% in a ratio of 1:1000 to yield a final concentration of 10 μg pravastatin per 1 mL carrier. The NaCl 0.9%-based carrier solution for the placebo group was prepared accordingly to include EtOH only (i.e., without pravastatin) at a concentration of 1:1000. Pregnant females were euthanized on day 15 and weights of fetuses were determined.
Animals. Inbred CBA/J (H-2k), DBA/2 (H-2d) and BALB/c (H-2d) mice from The Jackson Laboratory were used. 8-10-wk-old virgin female CBA/J mice were mated with 8-14-wk-old BALB/c, or DBA/2 males. Pregnant females were sacrificed at day 7 and at day 15. The frequency of fetal resorption was calculated on day 15 as previously described (Girardi et al., 2006, J Exp Med 203:2165-2175). Fetal weights were also determined. […]
as §1

CBA/J×DBA/2 mice [3] = assay: Litter size at birth in CBA/J×DBA/2 matings; type: in vivo, mouse; conditions: CBA/J×DBA/2 mice followed until delivery; FIG. 15C, 17C
Method: Measuring Thrombin-Anti-Thrombin Complexes. Thrombin anti thrombin III complex (TAT) was measured using a commercial ELISA kit (Enzygnost TAT; Dade Behring). Some mice from each experimental group were studied until delivery and the litter sizes were recorded at birth.

[4] = test system: Isoprostane 8-iso-prostaglandin F2a (STAT-8); assay: Placental STAT-8 (8-isoprostane) EIA, oxidative stress marker; type: in vivo, mouse; conditions: CBA/J×DBA/2 mice, day 15 placentas, FIG. 16A
Method: STAT-8 Measurements. Isoprostane 8-iso-prostaglandin F2a (STAT-8) was measured as a marker for oxidative stress. Placental tissue was harvested at day 15 of pregnancy and homogenized in 9 volumes of 0.1 M Tris pH 7.4 containing 1 mM EDTA and 10 μM indomethacin and stored at −80° C. in the presence of 0.005% BHT before assayed for free 8-isoprostane using a STAT-8-Isoprostane EIA kit (Cayman Chemical Company, Ann Arbor, Mich.).

| Compound | sFlt-1 released by monocytes (monocytes) [pg/mL] | plasma sFlt-1 levels (sFlt-1) [pg/mL] | % TF positive monocytes (TF) [%] | fetal resorption / fetal loss (CBA/J×DBA/2 mice [1]) | IUGR / growth restriction (fetal weight) (CBA/J×DBA/2 mice [2]) | litter size at birth (CBA/J×DBA/2 mice [3]) | placental STAT-8 increase [4] |
| --- | --- | --- | --- | --- | --- | --- | --- |
| CC[C@H](C)C(=O)O[C@H]1C[C@H](O)C=C2C=C[C@H](C)[C@H](CC[C@@H](O)C[C@@H](O)CC(=O)O)[C@H]21 [pravastatin] | 387 ± 78 | 18650 ± 5680 | 10±4 |  |  |  |  |
| hirudin |  |  |  | prevented fetal resorptions | prevented fetal resorptions and growth restriction | increasing the litter size | prevented STAT-8 increase |
